Measured values from the supplement of paper PMC11061612.

Legend:
Assay in all cases: Bliss excess, mean over the matrix (fraction); higher = more synergy
[1] = test system: COLO-680N (Esophageal Squamous Cell Carcinoma)
Outline: (§1)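 Cell lines grown in DMEM/F12 or RPMI with 10% FBS were plated in 1536-well plates and held 24 hours at 37°C, 5% CO2 before 72 hours of exposure to two-drug dose matrices, with DMSO typically at 0.2%. CellTiter-Glo 2.0 luminescence gave viability, which was converted to inhibition. Vehicle wells were set to 0 and blank wells to 1. Combination Emax is the second-highest inhibition in the matrix, and Bliss excess is the observed combination effect minus the expected EA + EB − EA·EB, where EA and EB are the single-agent effects.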

[2] = test system: TE-8 (Esophageal Squamous Cell Carcinoma)
Outline: as §1

[3] = test system: SHP-77 (Small Cell Lung Carcinoma)
Outline: as §1

[4] = test system: VAL (B-Cell Non-Hodgkin's Lymphoma)
Outline: as §1

[5] = test system: PC-3_[JPC-3] (Lung Adenocarcinoma)
Outline: as §1

[6] = test system: OPM-2 (Plasma Cell Myeloma)
Outline: as §1

[7] = test system: L-1236 (Hodgkin's Lymphoma)
Outline: as §1

[8] = test system: OVMIU (Ovarian Carcinoma)
Outline: as §1

| SMILES | Bliss excess [1] | Bliss excess [2] | Bliss excess [3] | Bliss excess [4] | Bliss excess [5] | Bliss excess [6] | Bliss excess [7] | Bliss excess [8] |
| --- | --- | --- | --- | --- | --- | --- | --- | --- |
| N#Cc1cnc(Nc2cc(NC[C@H]3CNCCO3)c(C(F)(F)F)cn2)cn1 [SRA737] + C=CCn1c(=O)c2cnc(Nc3ccc(N4CCN(C)CC4)cc3)nc2n1-c1cccc(C(C)(C)O)n1 [AZD1775] (first compound max 10 µM, partner max 1 µM) | 0.0422 | -0.0377 | 0.0512 | 0.0116 | -0.0239 | 0.106 | -0.0475 | 0.0717 |
| N#Cc1cnc(Nc2cc(NC[C@H]3CNCCO3)c(C(F)(F)F)cn2)cn1 [SRA737] + CCc1c2c(nc3ccc(O)cc13)-c1cc3c(c(=O)n1C2)COC(=O)[C@]3(O)CC [SN-38] (first compound max 10 µM, 7x7, partner max 0.3 µM) | 0.026 | 0.0052 | 0.13 | -0.122 | -0.0536 | 0.0183 | -0.0136 | -0.0769 |
| N#Cc1cnc(Nc2cc(NC[C@H]3CNCCO3)c(C(F)(F)F)cn2)cn1 [SRA737] + Nc1ccn([C@@H]2O[C@H](CO)[C@@H](O)C2(F)F)c(=O)n1 [Gemcitabine] (first compound max 10 µM, 7x7, partner max 0.3 µM) | 0.0092 | -0.022 | 0.141 | -0.125 | 0.0514 | 0.0238 | 0.0485 | -0.0588 |
| Cc1nc(-c2cn3c(n2)-c2ccc(-c4cnn(C(C)(C)C(N)=O)c4)cc2OCC3)n(C(C)C)n1 [Taselisib] + O=C(Nc1ccc2[nH]nc(-c3ccncc3)c2c1)[C@@H]1CCN(CC(=O)N2CCN(c3ccc(-c4ncccn4)cc3)CC2)C1 [SCH772984] (first compound max 10 µM, 7x7, partner max 5 µM) | 0.0219 | -0.0514 | -0.0221 | -0.002 | 0.0293 | 0.0779 | 0.0543 | 0.0699 |
| CC1(C)CCC(CN2CCN(c3ccc(C(=O)NS(=O)(=O)c4ccc(NCC5CCOCC5)c([N+](=O)[O-])c4)c(Oc4cnc5[nH]ccc5c4)c3)CC2)=C(c2ccc(Cl)cc2)C1 [Venetoclax] + CS(=O)(=O)CCNCc1ccc(-c2ccc3ncnc(Nc4ccc(OCc5cccc(F)c5)c(Cl)c4)c3c2)o1 [Lapatinib] (first compound max 1 µM, 7x7, partner max 10 µM) | -0.0166 | -0.0453 | 0.0197 | -0.0033 | -0.0332 | 0.0306 | -0.0583 | -0.0328 |
